Molecular target: T1, human α2A (α2 -C10)-adrenoceptor (Homo sapiens, UniProt P08913)
T1 construct: expressed in transfected cells; host or cells: S115 cells (recombinant mammalian S115 cell line), crude particulate homogenate
T1 sequence (P08913 1-465): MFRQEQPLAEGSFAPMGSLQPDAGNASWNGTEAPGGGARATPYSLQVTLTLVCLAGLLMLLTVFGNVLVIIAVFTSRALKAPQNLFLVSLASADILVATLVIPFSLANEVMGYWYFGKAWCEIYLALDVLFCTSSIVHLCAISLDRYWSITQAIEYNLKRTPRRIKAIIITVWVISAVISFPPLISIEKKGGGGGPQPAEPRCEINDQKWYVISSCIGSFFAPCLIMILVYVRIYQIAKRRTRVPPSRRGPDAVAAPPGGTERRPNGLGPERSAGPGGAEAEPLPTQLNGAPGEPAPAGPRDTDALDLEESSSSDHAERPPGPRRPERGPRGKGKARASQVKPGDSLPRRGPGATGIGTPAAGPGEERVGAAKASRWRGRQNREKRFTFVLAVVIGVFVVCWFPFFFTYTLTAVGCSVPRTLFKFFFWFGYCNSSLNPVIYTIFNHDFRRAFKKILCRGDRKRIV
Assay: [3H]-rauwolscine radioligand receptor binding (competition) assay, α2A-adrenoceptor
Conditions: recombinant mammalian S115 cell line; 1 nM [3H]-rauwolscine; 50 mM KH2PO4 pH 7.5; 30 min at 25° C.; read-out: α2A aff (Ki values)
Experimental: The affinity of the test compounds on the α2 -adrenoceptor was established using the recombinant mammalian S115 cell line expressing the human α2A (α2 -C10)-adrenoceptor (7) in a radioligand receptor binding assay. The cells were harvested and suspended in 30 v/w of 50 mM Tris with 5 mM EDTA (pH 7.5 at 4° C.) and homogenized in Teflon-glass homogenizer. Cell homogenate was then centrifuged twice at 47,800×g (Sorvall RC-5C) for 30 min at 4° C. with re-suspension by two strokes in Tris/EDTA buffer. The final pellet was re-suspended in ten v/w of incubation buffer (50 mM KH2 PO4 buffer, pH 7.5 at 25° C.) and distributed in aliquots to be stored at -80° C. for later use.
In a competition binding experiment, the radioligands were incubated at 1 nM [^3 H]-rauwolscine with the cell suspension (20-50 μg of total protein per tube) with or without presence of a test compound in 50 mM KH2 PO4 (pH 7.5 at 25° C.) in a total volume of 0.25 ml. Non-specific binding of the radioligand was determined using 0.1 mM oxymetazoline. After a 30 min incubation at 25° C., incubation was terminated by rapid filtration through GF/B filters using a cell harvester. Inhibition experiments were analysed using a non-linear regression curve-fitting computer program to obtain Ki values.

SMILES | Ki [nM]
CN1CCc2c(cccc2OCCCCCC#N)C1 [Compound 5b, 5-(5-cyano-1-pentyloxy)-2-methyl-1,2,3,4-tetrahydroisoquinoline] | 1040
CN1CCc2cc(OCCCCCC#N)ccc2C1 [Compound 5c, 6-(5-cyano-1-pentyloxy)-2-methyl-1,2,3,4-tetrahydroisoquinoline] | 3710
CN1CCc2c(cccc2OCc2ccc(F)c(F)c2)C1 [Compound 5d, 5-(3,4-difluorophenylmethoxy)-2-methyl-1,2,3,4-tetrahydroisoquinoline] | 318
CN1CCc2cc(OCc3ccc(F)c(F)c3)ccc2C1 [Compound 5e, 6-(3,4-difluorophenylmethoxy)-2-methyl-1,2,3,4-tetrahydroisoquinoline] | 1430
CN1CCc2cccc(OCc3ccc(F)c(F)c3)c2C1 [Compound 5f, 8-(3,4-difluorophenylmethoxy)-2-methyl-1,2,3,4-tetrahydroisoquinoline] | 490
CCCCOc1cccc2c1CCN(CCC)C2 [Compound 5g, 5-butoxy-2-propyl-1,2,3,4-tetrahydroisoquinoline] | 264
CN1CCc2c(cccc2OCC2CCCCC2)C1 [Compound 5h, 5-cyclohexylmethoxy-2-methyl-1,2,3,4-tetrahydroisoquinoline] | 750
CN1CCc2cc(OCC3CCCCC3)ccc2C1 [Compound 5i, 6-cyclohexylmethoxy-2-methyl-1,2,3,4-tetrahydroisoquinoline] | 977
CN1CCc2cccc(OCC3CCCCC3)c2C1 [Compound 5j, 8-cyclohexylmethoxy-2-methyl-1,2,3,4-tetrahydroisoquinoline] | 173
CCCCCCCCCCCCCCOc1cccc2c1CCN(C)C2 [Compound 5k, 5-tetradecanyloxy-2-methyl-1,2,3,4-tetrahydroisoquinoline] | 6480
CCCCCCCCCCCCCCOc1ccc2c(c1)CCN(C)C2 [Compound 5l, 6-tetradecanyloxy-2-methyl-1,2,3,4-tetrahydroisoquinoline] | 266
CCCCCCCCCCCCCCOc1cccc2c1CN(C)CC2 [Compound 5m, 8-tetradecanyloxy-2-methyl-1,2,3,4-tetrahydroisoquinoline] | 25000

Source: patent US6096752A, “Method for the preparation of tertiary amines, a compound useful therefor and alpha-2-receptor active tetrahydroisoquinoline derivatives” (priority 1998, dated 2000)
